This is an account of results in ChEMBL document CHEMBL1201862, “PubChem BioAssay data set” (2004).

SMILES strings stand for the structures.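 Following 48 hours of exposure in 96-well plates, responses at five concentrations were used to interpolate endpoints linearly. The concentration for 50% growth inhibition is given as GI50.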 Active and inactive are the calls of the source. Rule as the data show it: active = GI50 up to about 1.1 µM and inactive = higher. Where only a bound is given, the exact number is not on record here.

Common to all, as to assay: NCI tumour cell line growth inhibition, 48 h
The subject of experiment [1] is 786-0.
Experiment [2] deals with A549.
The test system of experiment [3] is EKVX.
Experiment [4] concerns HOP-62.
The test system of experiment [5] is HT-29.
Experiment [6] deals with M14.
In experiment [7] the test system is OVCAR-3.
In experiment [8] the test system is OVCAR-8.
Experiment [9] has as its system SF-268.
The subject of experiment [10] is SF-539.
For experiment [11], the system named is SK-MEL-5.
The subject of experiment [12] is SK-OV-3.
Experiment [13] has as its system SNB-19.
Experiment [14] has as its system SNB-75.
Experiment [15] relates to UACC-62.
Experiment [16] has as its system UO-31.

Consider `Cc1ccc2c(c1)CNc1ccc(C)cc1CN2`, for which the GI50 in experiment [1], in experiment [2], in [3], in experiment [4], in [5] and in [6] was > 100 µM (inactive) throughout. Moreover, the GI50 in [7] was > 100 µM (inactive); in experiment [8], > 100 µM (inactive); in experiment [9], > 100 µM (inactive); in experiment [10], > 100 µM (inactive); in [11] it was 62.4 µM (inactive); in experiment [12] it was > 100 µM (inactive). Also, the GI50 in experiment [13] is < 0.01 µM (active); in [14], 3.19 µM (inactive); in experiment [15], > 100 µM (inactive); in [16], > 100 µM (inactive).
Regarding `CCOC(=O)c1oc2ccc(OC)c3c2c1CCC3`, the GI50 is > 100 µM (inactive) in [1]; > 100 µM (inactive) in [2]; > 100 µM (inactive) in experiment [3]; > 100 µM (inactive) in [4]; > 10 µM (inactive) in experiment [5]; > 100 µM (inactive) in experiment [6]. For the same compound, the GI50 in [7] is > 100 µM (inactive); in experiment [8] it was > 100 µM (inactive); in experiment [9] it was > 100 µM (inactive); in experiment [10], > 100 µM (inactive); in experiment [11], 84.7 µM (inactive); in [12], > 100 µM (inactive). Also, the GI50 in [13] was > 100 µM (inactive); in experiment [14], > 100 µM (inactive); in [15] it was > 100 µM (inactive); in experiment [16], 32.1 µM (inactive).
On to `Cc1nc2c3c(ccc2nc1O)C(=O)c1ccccc1C3=O`, for which the GI50 in [1] was > 100 µM (inactive); in experiment [2], 52 µM (inactive); in experiment [3] it was 23.1 µM (inactive); in [4], 40.4 µM (inactive); in experiment [5] it was > 100 µM (inactive); in experiment [6], > 100 µM (inactive). Also, the GI50 was > 100 µM (inactive) in experiment [7]; 80 µM (inactive) in experiment [8]; 15.6 µM (inactive) in experiment [9]; 40.8 µM (inactive) in experiment [10]; > 100 µM (inactive) in experiment [11]; 24.5 µM (inactive) in experiment [12]. For the same compound, the GI50 is > 100 µM (inactive) in experiment [13], 15.6 µM (inactive) in [14], 55.3 µM (inactive) in experiment [15] and 6.15 µM (inactive) in experiment [16].
`COC1=CC(=O)[C@H]2[C@H](C)C(c3ccccc3)[C@@]2(C)C1=O` (stereo not given in full): the GI50 in experiment [1], in experiment [2], in experiment [3], in experiment [4], in experiment [5] and in experiment [6] was > 100 µM (inactive) in each case. For the same compound, the GI50 in [7], in [8], in [9], in experiment [10], in [11] and in [12] was > 100 µM (inactive) each time. Further, the GI50 in experiment [13], in [14], in experiment [15] and in [16] was > 100 µM (inactive) in each case.
With `CC(C)N(C(=O)C12C3C4C5C3C1(C(=O)N(C(C)C)C(C)C)C5C42)C(C)C` (stereo not given), the GI50 in experiment [1] is > 100 µM (inactive); in experiment [2] it was > 58.9 µM (inactive); in experiment [3], > 100 µM (inactive); in experiment [4], > 100 µM (inactive); in experiment [5], > 100 µM (inactive); in experiment [6], > 100 µM (inactive). In addition, the GI50 in [7] was > 100 µM (inactive); in experiment [8], > 60.5 µM (inactive); in experiment [9], > 100 µM (inactive); in [10], > 100 µM (inactive); in experiment [11], > 100 µM (inactive); in experiment [12] it was > 100 µM (inactive). Besides, the GI50 in experiment [13], in experiment [14], in experiment [15] and in experiment [16] was > 100 µM (inactive) each time.
